Results published in patent US11826351B2, “Compounds useful as kinase inhibitors” (Loxo Oncology, Inc., priority 2015, dated 2023).

How the values were obtained:
[1] = biological target: T1, Recombinant BTK^C481S kinase (Homo sapiens, UniProt Q06187, C481S); test: BTK C481S binding affinity (LanthaScreen TR-FRET); conditions: Kinase Tracer 236, 5 h incubation
T1 construct: purchased SignalChem
Summary of the method: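 BTK C481S tracer-displacement TR-FRET: 5 nM His-tagged kinase, 2 nM Eu anti-His antibody and 30 nM Kinase Tracer 236 incubated with titrated inhibitor for 5 h in Kinase Buffer A. Read at 340 nm excitation, 615/665 nm emission; IC50 from variable-slope log[inhibitor]–response fit.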

[2] = tested on: OCI-Ly10 human DLBCL cells; test: OCI-Ly10 anti-proliferative activity (Resazurin); format: cell-based; conditions: Homo sapiens, OCI-Ly10, 72 h, OCI-Ly10 cells, 72 h compound treatment, Resazurin; read-out: Proliferation Assay OCI-Ly10-20% FBS
Summary of the method: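 A separate untreated plate gave the Day 0 reading, measured by Resazurin fluorescence at 590 nm after 5 h. The average Day 0 value was subtracted from each treated well, and results were expressed as percent of DMSO control. IC50 values came from a log[Inhibitor] vs response Variable Slope fit in Graphpad prism.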

Recombinant EGFR = biological target: T2, Recombinant EGFR (Homo sapiens, UniProt P00533); test: EGFR binding affinity (LanthaScreen TR-FRET); conditions: Kinase Tracer 199, 5 h incubation
T2 construct: purchased Invitrogen
T2 sequence (P00533 25-1210): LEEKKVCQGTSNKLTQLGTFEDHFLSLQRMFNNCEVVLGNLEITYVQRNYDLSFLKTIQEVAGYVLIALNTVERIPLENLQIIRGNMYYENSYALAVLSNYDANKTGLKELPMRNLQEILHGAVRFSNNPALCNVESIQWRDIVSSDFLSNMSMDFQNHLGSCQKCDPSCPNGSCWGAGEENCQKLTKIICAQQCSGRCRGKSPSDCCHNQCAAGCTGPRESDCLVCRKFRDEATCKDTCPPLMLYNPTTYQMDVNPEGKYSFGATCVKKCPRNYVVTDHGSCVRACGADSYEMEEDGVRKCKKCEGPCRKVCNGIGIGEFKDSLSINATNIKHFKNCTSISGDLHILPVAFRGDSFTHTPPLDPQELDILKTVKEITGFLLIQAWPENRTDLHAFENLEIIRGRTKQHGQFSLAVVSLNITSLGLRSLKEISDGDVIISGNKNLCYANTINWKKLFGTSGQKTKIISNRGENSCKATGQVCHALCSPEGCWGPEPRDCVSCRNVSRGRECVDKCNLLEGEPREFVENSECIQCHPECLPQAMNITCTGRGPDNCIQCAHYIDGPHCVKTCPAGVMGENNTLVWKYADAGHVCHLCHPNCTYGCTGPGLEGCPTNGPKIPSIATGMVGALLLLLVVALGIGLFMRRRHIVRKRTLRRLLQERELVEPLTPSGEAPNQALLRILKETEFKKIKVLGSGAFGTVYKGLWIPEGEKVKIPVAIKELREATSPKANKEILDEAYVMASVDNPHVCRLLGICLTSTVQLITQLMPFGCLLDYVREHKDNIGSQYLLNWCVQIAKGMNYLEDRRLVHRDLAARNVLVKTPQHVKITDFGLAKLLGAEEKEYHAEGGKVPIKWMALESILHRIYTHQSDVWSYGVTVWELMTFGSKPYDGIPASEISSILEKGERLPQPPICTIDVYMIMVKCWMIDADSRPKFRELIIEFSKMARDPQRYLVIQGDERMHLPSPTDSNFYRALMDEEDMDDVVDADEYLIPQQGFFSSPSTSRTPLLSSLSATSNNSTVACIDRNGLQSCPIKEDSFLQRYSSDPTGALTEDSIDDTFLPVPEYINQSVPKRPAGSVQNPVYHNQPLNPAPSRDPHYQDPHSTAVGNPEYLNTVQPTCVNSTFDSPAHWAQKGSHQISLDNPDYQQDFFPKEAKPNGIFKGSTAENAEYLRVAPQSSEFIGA
Summary of the method: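 Compounds were titrated against recombinant EGFR and binding was followed by LanthaScreen time-resolved FRET.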

[3] = biological target: T3, Recombinant BTK^WT kinase (Homo sapiens, UniProt Q06187); test: BTK WT binding affinity (LanthaScreen TR-FRET); conditions: Kinase Tracer 236, 5 h incubation
T3 construct: purchased Invitrogen
T3 sequence (Q06187 whole entry): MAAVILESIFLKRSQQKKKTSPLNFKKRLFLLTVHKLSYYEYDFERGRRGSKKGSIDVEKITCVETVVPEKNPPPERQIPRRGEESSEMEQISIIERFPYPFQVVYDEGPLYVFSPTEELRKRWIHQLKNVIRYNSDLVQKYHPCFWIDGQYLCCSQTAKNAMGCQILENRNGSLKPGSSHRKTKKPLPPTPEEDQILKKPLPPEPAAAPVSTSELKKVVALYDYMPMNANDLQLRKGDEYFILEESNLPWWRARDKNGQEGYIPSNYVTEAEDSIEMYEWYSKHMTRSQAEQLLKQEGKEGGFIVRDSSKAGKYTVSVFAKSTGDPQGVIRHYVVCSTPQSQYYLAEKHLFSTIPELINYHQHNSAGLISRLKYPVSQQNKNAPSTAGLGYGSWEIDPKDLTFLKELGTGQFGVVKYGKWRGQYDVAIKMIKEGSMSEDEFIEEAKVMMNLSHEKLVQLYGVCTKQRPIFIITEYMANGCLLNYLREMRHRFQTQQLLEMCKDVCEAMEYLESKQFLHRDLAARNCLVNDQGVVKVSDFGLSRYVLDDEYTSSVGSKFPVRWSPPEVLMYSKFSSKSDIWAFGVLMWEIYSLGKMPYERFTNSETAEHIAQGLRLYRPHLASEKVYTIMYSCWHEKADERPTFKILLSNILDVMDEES
Summary of the method: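 IC50 obtained by variable-slope fit of TR-FRET signal (ex 340 nm; em 615 and 665 nm) versus inhibitor concentration. Reaction held for 5 h in LanthaScreen Kinase Buffer A with 2.5 nM His-tagged BTK^WT, 15 nM Kinase Tracer 236 and 2 nM Eu anti-His antibody.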

T1 sequence (Q06187 whole entry C481S): as the sequence (Q06187 whole entry) above, with C481S counted along it

Structure (SMILES) | IC50 [1] [nM] | IC50 [2] [nM] | IC50 (Recombinant EGFR) [nM] | IC50 [3] [nM]
COc1ccccc1C(=O)NCc1ccc(-c2nn(C(C)CO)c(N)c2C(N)=O)cc1 (centres unmarked) [Example 135, 5-amino-1-(2-hydroxy-1-methyl-ethyl)-3-[4-[[(2-methoxybenzoyl)amino]methyl]phenyl]pyrazole-4-carboxamide] | < 10 | 1000 to 10000 | > 10000 | 10 to 100
COc1ccc(F)cc1C(=O)NCc1ccc(-c2nn(C3CCCC3)c(N)c2C(N)=O)c(F)c1 [Example 136, 5-amino-1-cyclopentyl-3-[2-fluoro-4-[[(5-fluoro-2-methoxy-benzoyl)amino]methyl]phenyl]pyrazole-4-carboxamide] | < 10 | 10 to 100 | 1000 to 10000 | < 10
COc1ccc(F)cc1C(=O)NCc1cc(F)c(-c2nn(C3CCCC3)c(N)c2C(N)=O)cc1F [Example 137, 5-amino-1-cyclopentyl-3-[2,5-difluoro-4-[[(5-fluoro-2-methoxy-benzoyl)amino]methyl]phenyl]pyrazole-4-carboxamide] | < 10 | 10 to 100 | 1000 to 10000 | < 10
COc1ccccc1C(=O)NCc1c(F)cc(-c2nn(C3CCCC3)c(N)c2C(N)=O)cc1F [Example 138, 5-amino-1-cyclopentyl-3-[3,5-difluoro-4-[[(2-methoxybenzoyl)amino]methyl]phenyl]pyrazole-4-carboxamide] | 10 to 100 | 100 to 1000 | > 10000 | 10 to 100
COc1ccc(F)cc1C(=O)NCc1c(F)cc(-c2nn(C3CCCC3)c(N)c2C(N)=O)cc1F [Example 139, 5-amino-1-cyclopentyl-3-[3,5-difluoro-4-[[(5-fluoro-2-methoxy-benzoyl)amino]methyl]phenyl]pyrazole-4-carboxamide] | < 10 | 100 to 1000 | > 10000 | 10 to 100
COc1ccccc1C(=O)NCc1cc(F)c(-c2nn(C3CCCC3)c(N)c2C(N)=O)c(F)c1 [Example 140, 5-amino-1-cyclopentyl-3-[2,6-difluoro-4-[[(2-methoxybenzoyl)amino]methyl]phenyl]pyrazole-4-carboxamide] | < 10 | 100 to 1000 | > 10000 | < 10
COc1ccccc1C(=O)NCc1ccc(-c2nn(C3CCOCC3)c(N)c2C(N)=O)c(F)c1F [Example 141, 5-amino-3-[2,3-difluoro-4-[[(2-methoxybenzoyl)amino]methyl]phenyl]-1-tetrahydropyran-4-yl-pyrazole-4-carboxamide] | < 10 | 100 to 1000 | > 10000 | 10 to 100
COc1ccc(F)cc1C(=O)NCc1ccc(-c2nn(C3CCOCC3)c(N)c2C(N)=O)c(F)c1F [Example 142, 5-amino-3-[2,3-difluoro-4-[[(5-fluoro-2-methoxy-benzoyl)amino]methyl]phenyl]-1-tetrahydropyran-4-yl-pyrazole-4-carboxamide] | < 10 | 100 to 1000 | 1000 to 10000 | < 10
COCC(C)n1nc(-c2ccc(CNC(=O)c3ccccc3OC)cc2)c(C(N)=O)c1N (centres unmarked) [Example 143, 5-amino-3-[4-[[(2-methoxybenzoyl)amino]methyl]phenyl]-1-(2-methoxy-1-methyl-ethyl)pyrazole-4-carboxamide] | < 10 | 100 to 1000 | > 10000 | 10 to 100
COc1ccccc1C(=O)NCc1ccc(-c2nn(C3CNCC3(F)F)c(N)c2C(N)=O)cc1 (centres unmarked) [Example 144, 5-amino-1-(4,4-difluoropyrrolidin-3-yl)-3-[4-[[(2-methoxybenzoyl)amino]methyl]phenyl]pyrazole-4-carboxamide] | < 10 | 100 to 1000 | 100 to 1000 | < 10
COc1ccccc1C(=O)NCc1ccc(-c2nn(C(C)c3cccnc3)c(N)c2C(N)=O)cc1 (centres unmarked) [Example 145, 5-amino-3-[4-[[(2-methoxybenzoyl)amino]methyl]phenyl]-1-[1-(3-pyridyl)ethyl]pyrazole-4-carboxamide] | 10 to 100 | 100 to 1000 | > 10000 | 10 to 100
